Measurements from patent US20260193271A1, “PAN-KRAS INHIBITOR COMPOUND” (ADLAI NORTYE BIOPHARMA CO., LTD., priority 2022, published 2026).

Legend:
[1] = tested on: AsPC-1 (G12D); assay: In vitro cell proliferation inhibition test (CellTiter-Glo), AsPC-1; assay type: cell-based; settings: KRAS (p.G12D), 72 h co-incubation
Procedure, shortened: (§1)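 Cells were seeded at 1000-5000/well by doubling time and cultured overnight at 37 °C, 5% CO2. They were then exposed for 72 h to 10-point, 3-fold compound dilutions (final top 10 μM), and viability was read by CellTiter-Glo luminescence. IC50 came from normalized signals fitted by four-parameter regression.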

[2] = tested on: SW480 (G12V); assay: In vitro cell proliferation inhibition test (CellTiter-Glo), SW480; assay type: cell-based; settings: SW480 colon cell line, KRAS (p.G12V), 72 h co-incubation
Procedure, shortened: as §1

[3] = Homo sapiens, ASPC1, AsPC-1 pancreas cell line

| Molecule | IC50 [1, 3] [nM] | IC50 ([2]; Homo sapiens) [nM] | IC50 ([1]; AsPC-1 pancreas cell line) [nM] | IC50 [2] [nM] |
| --- | --- | --- | --- | --- |
| CCn1c(-c2cc(-c3cc(CNC)on3)cnc2[C@H](C)OC)c2c3cc(ccc31)-c1csc(n1)C[C@H](NC(=O)[C@H]1C[C@@H]1C)C(=O)N1CCC[C@H](N1)C(=O)OCC(C)(C)C2 (atropisomer, axis not shown) [Compound 23, (1S,2S)-N-((6^3S,4S,Z)-1^1-ethyl-1^2-(2-((S)-1-methoxyethyl)-5-(5-((methylamino)methyl)isoxazol-3-yl)pyridin-3-yl)-10,10-dimethyl-5,7-dioxo-6^1,6^2,6^3,6^4,6^5,6^6-hexahydro-1^1H-8-oxa-2(4,2)-thiazola-1(5,3)-indola-6(1,3)-pyridazinacycloundecaphane-4-yl)-2-methylcyclopropane-1-carboxamide] | 42 | 117 |  |  |
| CCn1c(-c2cc(-c3ccc4c(c3)CN(C)C4)cnc2C(C)OC)c2c3cc(ccc31)-c1csc(n1)CC(NC(=O)C1CC1C)C(=O)N1CCCC(N1)C(=O)OCC(C)(C)C2 [Compound 2′, (1S,2S)-N-((6^3S,4S,Z)-1^1-ethyl-1^2-(2-((S)-1-methoxyethyl)-5-(2-methylisoindolin-5-yl)pyridin-3-yl)-10,10-dimethyl-5,7-dioxo-6^1,6^2,6^3,6^4,6^5,6^6-hexahydro-1^1H-8-oxa-2(4,2)-thiazola-1(5,3)-indola-6(1,3)-pyridazinacycloundecaphane-4-yl)-2-methylcyclopropane-1-carboxamide] |  |  | 2500 | 820 |
| (1S,2S)-N-((6^3S,4S,Z)-1^1-ethyl-1^2-(6′-((S)-1-methoxyethyl)-4-(morpholinomethyl)-[2,3′-bipyridin]-5′-yl)-10,10-dimethyl-5,7-dioxo-6^1,6^2,6^3,6^4,6^5,6^6-hexahydro-1^1H-8-oxa-2(4,2)-thiazola-1(5,3)-indola-6(1,3)-pyridazinacycloundecaphane-4-yl)-2-methylcyclopropane-1-carboxamide [Compound 11′] |  |  | 242 | 346 |
| CCn1c(-c2cc(-c3nc(C)n(C)n3)cnc2[C@H](C)OC)c2c3cc(ccc31)-c1csc(n1)C[C@H](NC(=O)[C@H]1C[C@@H]1C)C(=O)N1CCC[C@H](N1)C(=O)OCC(C)(C)C2 (atropisomer, axis not shown) [Compound 20, (1S,2S)-N-((6^3S,4S,Z)-1^2-(5-(4,5-dimethyl-4H-1,2,4-triazol-3-yl)-2-((S)-1-methoxyethyl)pyridin-3-yl)-1^1-ethyl-10,10-dimethyl-5,7-dioxo-6^1,6^2,6^3,6^4,6^5,6^6-hexahydro-1^1H-8-oxa-2(4,2)-thiazola-1(5,3)-indola-6(1,3)-pyridazinacycloundecaphane-4-yl)-2-methylcyclopropane-1-carboxamide] | 3.4 | 3 |  |  |
| CCn1c(-c2cc(-c3ccc(CN4CC[C@@H](F)C4)cn3)cnc2[C@H](C)OC)c2c3cc(ccc31)-c1csc(n1)C[C@H](NC(=O)[C@H]1C[C@@H]1C)C(=O)N1CCC[C@H](N1)C(=O)OCC(C)(C)C2 (atropisomer, axis not shown) [Compound 46, (1S,2S)-N-((6^3S,4S,Z)-1^1-ethyl-1^2-(5-(((R)-3-fluoropyrrolidin-1-yl)methyl)-6′-((S)-1-methoxyethyl)-[2,3′-bipyridin]-5′-yl)-10,10-dimethyl-5,7-dioxo-6^1,6^2,6^3,6^4,6^5,6^6-hexahydro-1^1H-8-oxa-2(4,2)-thiazola-1(5,3)-indola-6(1,3)-pyridazinacycloundecaphane-4-yl)-2-methylcyclopropane-1-carboxamide] | 6.1 | 4.1 |  |  |
| CCn1c(-c2cc(-c3cc(C4CCN(C)CC4)on3)cnc2[C@H](C)OC)c2c3cc(ccc31)-c1csc(n1)C[C@H](NC(=O)[C@H]1C[C@@H]1C)C(=O)N1CCC[C@H](N1)C(=O)OCC(C)(C)C2 (atropisomer, axis not shown) [Compound 30, (1S,2S)-N-((6^3S,4S,Z)-1^1-ethyl-1^2-(2-((S)-1-methoxyethyl)-5-(5-(1-methylpiperidin-4-yl)isoxazol-3-yl)pyridin-3-yl)-10,10-dimethyl-5,7-dioxo-6^1,6^2,6^3,6^4,6^5,6^6-hexahydro-1^1H-8-oxa-2(4,2)-thiazola-1(5,3)-indola-6(1,3)-pyridazinacycloundecaphane-4-yl)-2-methylcyclopropane-1-carboxamide] | 0.58 | 0.44 |  |  |
| CCn1c(-c2cc(-c3cccc(CN(C)C)c3)cnc2[C@H](C)OC)c2c3cc(ccc31)-c1csc(n1)C[C@H](NC(=O)[C@H]1[C@H](C)[C@@H]1C)C(=O)N1CCC[C@H](N1)C(=O)OCC(C)(C)C2 (atropisomer, axis not shown) [Compound 4, (1r,2R,3S)-N-((6^3S,4S,Z)-1^2-(5-(3-((dimethylamino)methyl)phenyl)-2-((S)-1-methoxyethyl)pyridin-3-yl)-1^1-ethyl-10,10-dimethyl-5,7-dioxo-6^1,6^2,6^3,6^4,6^5,6^6-hexahydro-1^1H-8-oxa-2(4,2)-thiazola-1(5,3)-indola-6(1,3)-pyridazinacycloundecaphane-4-yl)-2,3-dimethylcyclopropane-1-carboxamide] | 2.6 | 1.6 |  |  |
| CCn1c(-c2cc(-c3cnn(CCN4CCOCC4)c3)cnc2[C@H](C)OC)c2c3cc(ccc31)-c1csc(n1)C[C@H](NC(=O)[C@H]1C[C@@H]1C)C(=O)N1CCC[C@H](N1)C(=O)OCC(C)(C)C2 (atropisomer, axis not shown) [Compound 15, (1S,2S)-N-((6^3S,4S,Z)-1^1-ethyl-1^2-(2-((S)-1-methoxyethyl)-5-(1-(2-morpholinoethyl)-1H-pyrazol-4-yl)pyridin-3-yl)-10,10-dimethyl-5,7-dioxo-6^1,6^2,6^3,6^4,6^5,6^6-hexahydro-1^1H-8-oxa-2(4,2)-thiazola-1(5,3)-indola-6(1,3)-pyridazinacycloundecaphane-4-yl)-2-methylcyclopropane-1-carboxamide] | 3 | 6 |  |  |
| CCn1c(-c2cc(-c3ccc(CN4CC[C@@H](F)C4)cc3)cnc2[C@H](C)OC)c2c3cc(ccc31)-c1csc(n1)C[C@H](NC(=O)[C@H]1C[C@@H]1C)C(=O)N1CCC[C@H](N1)C(=O)OCC(C)(C)C2 (atropisomer, axis not shown) [Compound 6, (1S,2S)-N-((6^3S,4S,Z)-1^1-ethyl-1^2-(5-(4-(((R)-3-fluoropyrrolidin-1-yl)methyl)phenyl)-2-((S)-1-methoxyethyl)pyridin-3-yl)-10,10-dimethyl-5,7-dioxo-6^1,6^2,6^3,6^4,6^5,6^6-hexahydro-1^1H-8-oxa-2(4,2)-thiazola-1(5,3)-indola-6(1,3)-pyridazinacycloundecaphane-4-yl)-2-methylcyclopropane-1-carboxamide] | 13 | 23 |  |  |
| CCn1c(-c2cc(-c3cnn(C4CN(C)C4)c3)cnc2[C@H](C)OC)c2c3cc(ccc31)-c1csc(n1)C[C@H](NC(=O)[C@H]1[C@H](C)[C@@H]1C)C(=O)N1CCC[C@H](N1)C(=O)OCC(C)(C)C2 (atropisomer, axis not shown) [Compound 17, (1r,2R,3S)-N-((6^3S,4S,Z)-1^1-ethyl-1^2-(2-((S)-1-methoxyethyl)-5-(1-(1-methylazetidin-3-yl)-1H-pyrazol-4-yl)pyridin-3-yl)-10,10-dimethyl-5,7-dioxo-6^1,6^2,6^3,6^4,6^5,6^6-hexahydro-1^1H-8-oxa-2(4,2)-thiazola-1(5,3)-indola-6(1,3)-pyridazinacycloundecaphane-4-yl)-2,3-dimethylcyclopropane-1-carboxamide] | 0.31 | 2.5 |  |  |
